Laboratory results taken from patent US8324261B2, “Histidine derivatives” (Nippon Zoki Pharmaceutical Co., Ltd., priority 2007, dated 2012).
Where two headings read alike, the source gives them in different places.

Key:
[1] = Test of kinetics in blood of rats; type: in vivo
Protocol: Each of the compound of the present invention and the carboxylic acid type A thereof was dissolved in DMSO, diluted with water. A sample solution (1% DMSO solution) made into 2 mg/mL was orally administered in a single dose to the fasted Wistar strain SPF male rats of seven weeks age using a stomach tube (10 mg/5 mL/kg). At the stages of 0.25, 0.5, 1, 2, 4 and 8 hour(s) after the administration, about 150 μL of the blood was collected from tail vein using a capillary to which heparin was added and said capillary was centrifuged to collect the plasma. Protein was removed from the plasma sample and the supernatant liquid was diluted to prepare each sample solution for the measurement.

Chung model rat = assay: Test for analgesic effect (2)/(3): Chung model rat, mechanical allodynia by von Frey filament; type: in vivo, rats
Protocol: A test for analgesic effect was conducted using a Chung model rat which is a neuropathic pain model. As to the test animal, male rats of Wistar strain of nine weeks age were used and model rats were prepared in accordance with the method of Kim and Chung (Pain, vol. 50, pages 355 to 363, 1992). Thus, under anesthetization with pentobarbital (40 mg/kg, intraperitoneal administration), rat L5 spinal nerve was exposed and L5 dorsal root ganglion periphery side was strongly ligated using 5-0 silk yarn. The animals were placed in a transparent acrylate cage whose bottom was made of wire net, a 50% reaction threshold value was calculated by an up-down method using a von Frey filament (manufactured by North Coast Medical Inc.) according to the methods of Chaplan, et al. (J. Neurosci. Method, vol. 53, pages 55 to 63, 1994) and by Lee, et al. (J. Neurophysiol., vol. 81, pages 2226 to 2233, 1999) and measurement of allodynia was conducted. Before injury of spinal nerve, the 50% reaction threshold value was measured twice and the animals where the threshold value was outside the standard were excluded from the operation for spinal nerve injury. […] Those test animals were made into groups of seven animals so that the mean value of 50% reaction threshold after 28 days from the nerve injury as an index became nearly the same in each group.
The carboxylic acid type of the compounds of the present invention as a test substance was intraperitoneally administered in a single dose while, a 0.5% CMC-Na/physiological saline solution was administered similarly to a nerve injury control group. After 30 minutes from the administration of the test substance, allodynia was measured to calculate a 50% reaction threshold value. With regard to a significance test, Paired t-test was conducted for comparison between before and after the nerve injury and Dunnett's multiple comparison test was used for comparison among multiple groups of the nerve injury control group and the test substance administration group.
According to the same manner as in the above Test for Analgesic Effect (2), each of Compound 12 of the present invention (3 mg/kg, 10 mg/kg) and Carboxylic acid substance A of the compound of the present invention (10 mg/kg) was orally administered in a single dose as the test substance to Chung model rats. Allodynia after 0, 15, 30, 60 and 120 minutes from the administration was measured for each of the test substance administration group and the nerve injury control group whereupon a 50% reaction threshold value was calculated.

mice = assay: Test for analgesic effect (4): acetic acid writhing test; type: in vivo; conditions: oral single dose; 0.7% acetic acid i.p. 25 minutes after; writhing numbers during 10 minutes
Protocol: The compounds of the present invention or the carboxylic acid type thereof were orally administered to mice and a test for an analgesic effect was carried out by means of an acetic acid writhing test. As to the test animals, male mice of ddY strain of four weeks age were subjected to a preliminary breeding and they were used where one group comprised ten mice. Each of the compound of the present invention or the carboxylic acid type thereof as a test substance was orally administered in a single dose while, to a control group, distilled water (water for injection) was administered similarly. After 25 minutes from the administration of the test substance, a 0.7% acetic acid/physiological saline was intraperitoneally administered at the dose of 10 mL/kg. From 5 minutes thereafter, writhing numbers during 10 minutes were counted and a suppressive rate for each mouse was calculated according to the following formula. Suppressive Rate (%)=[(Mean writhing numbers of the control group)−(Writhing numbers of each mouse)]÷[Mean writhing numbers of the control group]×100

SART stressed mouse = assay: Test for analgesic effect (1): SART stressed mouse, modified Randall-Selitto tail pressure method; type: in vivo, mice; conditions: for Analgesic coefficient: 25 ng per mouse into the lateral ventricle, 30 minutes after administration, pain threshold of test group divided by that of SART control group, 1.0 = no effect
[2] = parameters: species or system cynomolgus monkeys; conditions: cynomolgus monkey, in vivo, 30 mg/kg
Protocol: Each of the compound of the present invention and Carboxylic acid type A thereof dissolved or suspended in a hydrochloric acid solution was diluted with water. […] At the stages of before the administration and of 0.25, 0.5, 1, 2, 4, 8 and 24 hour(s) after the administration, the blood was collected from femoral vein using a syringe to which heparin was added followed by subjecting to centrifugation to collect the plasma. Collection of the blood was conducted for three times in total where one collection was done with each blank term of six days for each test substance. Concentration of Carboxylic acid type A in each of the collected plasma samples was quantified by an LC-MS and Cmax (maximum drug concentration in plasma) and AUC (area under blood concentration time curve; 0 to ∞ hour(s)) of the compound of the present invention and Carboxylic acid type A thereof were calculated.

SMILES	AUC ([1]; rat, in vivo, po, 10 mg/kg) [ng·h/mL]	Cmax ([1]; rat, in vivo, po, 10 mg/kg) [ng/mL]	further results
C=CC(=O)N[C@@H](Cc1cncn1C)C(=O)OC [Compound 1, N^α-acryloyl-N^π-methyl-L-histidine methyl ester]	2027.6	1623.9	–
C=CC(=O)N[C@@H](Cc1cncn1C)C(=O)OCCc1ccc(OC)cc1 [Compound 13, N^α-acryloyl-N^π-methyl-L-histidine 4-methoxyphenethyl ester]	4058.3	3163.4	–
C=CC(=O)N[C@@H](Cc1cncn1C)C(=O)OCCC(C)(C)C [Compound 5, N^α-acryloyl-N^π-methyl-L-histidine 3,3-dimethylbutyl ester]	3264.2	2761.6	–
C=CC(=O)N[C@@H](Cc1cncn1Cc1ccccc1)C(=O)O [Carboxylic acid type D, N^α-acryloyl-N^π-benzyl-L-histidine]	–	–	threshold as compared with the nerve injury control group (Chung model rat; intraperitoneal single dose): significant increase in the threshold; 50% reaction threshold value (Chung model rat; intraperitoneally 400 μg/kg single dose, 30 minutes after administration): 7.32 g; Suppressive Rate (%) (mice): 37.9%
CC(C)=CC(=O)N[C@@H](Cc1cncn1C)C(=O)O [Carboxylic acid type E, N^α-3-metylcrotonoyl-N^π-methyl-L-histidine]	–	–	Suppressive Rate (%) (mice): 17.8%
CCn1cncc1C[C@H](NC(=O)C=Cc1ccccc1)C(=O)O [Carboxylic acid type C, N^α-3-phenylpropenoyl-N^π-ethyl-L-histidine]	–	–	Analgesic coefficient (SART stressed mouse): 1.14; Suppressive Rate (%) (mice): 27.7%
Cl.Cn1cncc1C[C@H](NC(=O)C=Cc1ccccc1O)C(=O)OCCc1ccccc1 [Compound 26, N^α-[3-(2-hydroxyphenyl)acryloyl]-N^π-methyl-L-histidine phenethyl ester hydrochloride]	–	–	Suppressive Rate (%) (mice): 23.8%
C=CC(=O)N[C@@H](Cc1cncn1C)C(=O)OCc1ccc(C)cc1 [Compound 9, N^α-acryloyl-N^π-methyl-L-histidine 4-methylbenzyl ester]	3750.7	2671.7	–
C=CC(=O)N[C@@H](Cc1cncn1C)C(=O)OCCCC [Compound 6, N^α-acryloyl-N^π-methyl-L-histidine butyl ester]	2774.6	2407.2	–
C=CC(=O)N[C@@H](Cc1cncn1C)C(=O)OCC(C)(C)C [Compound 3, N^α-acryloyl-N^π-methyl-L-histidine neopentyl ester]	–	–	AUC ([1]; rats, oral 10 mg/kg single dose, 0 to 8 hours, Carboxylic acid type A quantified in plasma, values converted to dose equimolar to Carboxylic acid type A): 2373.9 ng·h/mL; Cmax ([1]; rats, oral 10 mg/kg single dose, Carboxylic acid type A quantified in plasma, values converted to dose equimolar to Carboxylic acid type A): 2074.0 ng/mL
CC=CC(=O)N[C@@H](Cc1cncn1C)C(=O)O [Carboxylic acid type B, N^α-crotonoyl-N^π-methyl-L-histidine]	–	–	Analgesic coefficient (SART stressed mouse): 1.23
NCCC(=O)N[C@@H](Cc1cnc[nH]1)C(=O)O [carnosine, β-ananyl-L-histidine, reference compound]	–	–	analgesic action (SART stressed mouse; administration into the lateral ventricle): no significant analgesic action
C=CC(=O)N[C@@H](Cc1cncn1C)C(=O)OCCc1ccc(C)cc1 [Compound 14, N^α-acryloyl-N^π-methyl-L-histidine 4-methylphenethyl ester]	–	–	AUC [2]: 5133.2 ng·h/mL; Cmax [2]: 779.2 ng/mL

Second part, led by results:

AUC ([1]; rat, in vivo, po, 10 mg/kg) [ng·h/mL]	Cmax ([1]; rat, in vivo, po, 10 mg/kg) [ng/mL]	SMILES	further results
2641.8	2144.0	C=CC(=O)N[C@@H](Cc1cncn1C)C(=O)OCCC(C)C [Compound 4, N^α-acryloyl-N^π-methyl-L-histidine isopentyl ester]	–
3620.6	2391.8	C=CC(=O)N[C@@H](Cc1cncn1C)C(=O)OCCc1ccc(Cl)cc1 [Compound 15, N^α-acryloyl-N^π-methyl-L-histidine 4-chlorophenethyl ester]	–
3971.6	3111.6	C=CC(=O)N[C@@H](Cc1cncn1C)C(=O)OCCc1ccccc1 [Compound 12, N^α-acryloyl-N^π-methyl-L-histidine phenethyl ester]	anti-allodynia action as compared with the nerve injury control group (Chung model rat; oral single dose (Compound 12: 3 and 10 mg/kg; Carboxylic acid type A: 10 mg/kg), 15, 30 and 60 minutes after administration, FIG. 1): significant anti-allodynia action; anti-allodynia action compared with Carboxylic acid type A in the same dose (Chung model rat; oral, 10 mg/kg): stronger anti-allodynia action; AUC [2]: 8099.0 ng·h/mL; Cmax [2]: 4088.2 ng/mL
4234.6	2207.4	C=CC(=O)N[C@@H](Cc1cncn1C)C(=O)OCc1ccc(C(C)(C)C)cc1 [Compound 11, N^α-acryloyl-N^π-methyl-L-histidine 4-tert-butylbenzyl ester]	–
2704.9	2044.3	C=CC(=O)N[C@@H](Cc1cncn1C)C(=O)OC(C)OC(=O)OC1CCCCC1 (stereo partly drawn) [Compound 17, N^α-acryloyl-N^π-methyl-L-histidine 1-(cyclohexyloxycarbonyloxy)ethyl ester]	–
3468.0	2719.4	C=CC(=O)N[C@@H](Cc1cncn1C)C(=O)OCC [Compound 2, N^α-acryloyl-N^π-methyl-L-histidine ethyl ester]	–
3601.8	2562.7	C=CC(=O)N[C@@H](Cc1cncn1C)C(=O)OCCc1ccc(C(C)(C)C)cc1 [Compound 16, N^α-acryloyl-N^π-methyl-L-histidine 4-tert-butylphenethyl ester]	–
3747.0	2579.9	C=CC(=O)N[C@@H](Cc1cncn1C)C(=O)OCc1ccc(Cl)cc1 [Compound 10, N^α-acryloyl-N^π-methyl-L-histidine 4-chlorobenzyl ester]	–
2614.2	1495.3	C=CC(=O)N[C@@H](Cc1cncn1C)C(=O)OC(c1ccccc1)c1ccccc1 [Compound 24, N^α-acryloyl-N^π-methyl-L-histidine diphenylmethyl ester]	–
